From patent US20150290200A1, “INTRACELLULAR KINASE INHIBITORS” (Pharmacyclics Inc., priority 2006, published 2015)
Where two headings read alike, the source gives them in different places.

Tests used:
Assay type in all cases: biochemical
ITK kinase domain = target: T1, ITK kinase domain (Homo sapiens, UniProt Q08881); assay: In vitro kinase assay (HITHUNTER enzyme fragment complementation), ITK; settings: read-out: IC50 ITK
T1 construct: N-terminally His-tagged ITK kinase domain (amino acids 352-617); His (N); made in house
T1 sequence (Q08881 352-617): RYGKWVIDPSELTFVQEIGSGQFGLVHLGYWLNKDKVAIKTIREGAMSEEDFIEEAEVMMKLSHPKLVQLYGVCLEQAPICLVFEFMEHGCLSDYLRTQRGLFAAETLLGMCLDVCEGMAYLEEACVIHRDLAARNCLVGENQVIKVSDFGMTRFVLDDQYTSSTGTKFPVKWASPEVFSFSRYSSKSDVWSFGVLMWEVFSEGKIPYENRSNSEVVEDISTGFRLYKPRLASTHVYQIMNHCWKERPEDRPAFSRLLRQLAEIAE
Procedure: Compounds were screened using the HITHUNTER™ enzyme fragment complementation method (Discoverx). Briefly, a recombinantly produced, N-terminally His-tagged ITK kinase domain (amino acids 352-617) was incubated with various concentrations of individual compounds. ATP and substrate were added, and the kinase reaction was allowed to proceed for 2-16 hours. Commercially available detection reagents were added and allowed to react for 2-4 hours. The reaction was evaluated by luminescence. Initial results were confirmed using full-length recombinant ITK protein.
In order to confirm the mechanism by which compounds depicted herein interact with the kinase domain of Tec and EGFR kinases, we created a point mutant of the ITK kinase domain, whereby the key amino acid, namely C442 was mutated to alanine. The protein was expressed in a commercial baculovirus expression system using the manufacturer's general protocol (Invitrogen, pBlueBac). Protein was expressed and purified using standard techniques. […] While the activity of WT-ITK was inhibited by compounds depicted in this application, the same compounds had no activity towards the C442A mutant kinase domain.

BTK kinase domain = target: T2, BTK kinase domain (Homo sapiens, UniProt Q06187); assay: In vitro kinase assay (HITHUNTER), BTK
T2 construct: The kinase domains of BTK, LCK and ERK were expressed as recombinant purified proteins; made in house
Source text: (§1) Similarly, commercially available reagents such as HITHUNTER™ were used to evaluate the effect of compounds on the activity of additional kinases. The kinase domains of BTK, LCK and ERK were expressed as recombinant purified proteins were used for these studies.

LCK kinase domain = target: T3, LCK kinase domain (Homo sapiens, UniProt P06239); assay: In vitro kinase assay (HITHUNTER), LCK; settings: Table 2
T3 construct: The kinase domains of BTK, LCK and ERK were expressed as recombinant purified proteins; made in house
Source text: as §1

T2 sequence (Q06187 402-655 limits assumed): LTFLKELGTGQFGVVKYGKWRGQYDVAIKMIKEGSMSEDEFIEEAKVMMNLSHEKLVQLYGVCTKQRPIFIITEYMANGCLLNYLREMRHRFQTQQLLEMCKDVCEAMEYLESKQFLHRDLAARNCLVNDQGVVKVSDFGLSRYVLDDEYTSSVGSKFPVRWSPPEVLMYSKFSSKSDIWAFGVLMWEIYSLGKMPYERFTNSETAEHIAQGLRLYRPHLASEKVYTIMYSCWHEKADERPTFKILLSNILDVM
T3 sequence (P06239 245-498 limits assumed, species assumed): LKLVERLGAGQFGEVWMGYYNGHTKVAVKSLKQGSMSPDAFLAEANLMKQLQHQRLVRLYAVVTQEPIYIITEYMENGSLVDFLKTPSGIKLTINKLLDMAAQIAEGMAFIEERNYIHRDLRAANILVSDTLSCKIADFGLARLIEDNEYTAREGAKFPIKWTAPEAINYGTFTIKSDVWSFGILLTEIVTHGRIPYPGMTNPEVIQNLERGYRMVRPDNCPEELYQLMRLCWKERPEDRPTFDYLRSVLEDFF

Row | Structure (SMILES) | IC50 (ITK kinase domain; Table 2) | IC50 (BTK kinase domain; Table 2) | IC50 (LCK kinase domain) | further results
1 | COc1cc(OC)cc(C(=O)CCN2CCOCC2)c1 | 5 nM | 425 nM | 12.6 µM | 
2 | O=C(CCN1CCOCC1)c1ccc(Cl)c(Cl)c1 | 13 nM | 102 nM | 34.1 µM | 
3 | O=C(CCN1CCOCC1)c1cccc(Br)c1 | 25 nM | 365 nM |  | IC50 LCK (LCK kinase domain): NO IC50
4 | N#Cc1cccc(C(=O)CCN2CCOCC2)c1 | 29 nM | 643 nM | 413 µM | 
5 | COc1cccc(C(=O)CCN2CCOCC2)c1 | 35 nM | 942 nM | 16.4 µM | 
6 | O=C(CCN1CCOCC1)c1cccc(C(F)(F)F)c1 | 43 nM | 656 nM | 27.1 µM | 
7 | O=C(CCN1CCOCC1)c1ccc(F)cc1F | 56 nM | 865 nM |  | IC50 LCK (LCK kinase domain): NO IC50
8 | CC(=O)Nc1cccc(C(=O)CCN2CCOCC2)c1 | 65 nM | 1240 nM | 18.4 µM | 
9 | N#Cc1ccc(C(=O)CCN2CCOCC2)cc1 | 72 nM | 737 nM |  | IC50 LCK (LCK kinase domain): NO IC50
10 | O=C(CCN1CCOCC1)c1cccc2ccccc12 | 65 nM | 398 nM | 23.2 µM | 
11 | O=C(CCN1CCOCC1)c1ccc(Oc2ccccc2)cc1 | 91 nM | 94.1 nM | 18.5 µM | 
12 | O=C(CCN1CCOCC1)c1cccc(Cl)c1 | 77 nM | 775 nM | 47.6 µM | 
13 | O=C(CCN1CCOCC1)c1ccc2c(c1)OCCO2 | 96 nM | 1540 nM | 20.8 µM | 
14 | O=C(CCN1CCOCC1)c1ccc(Br)cc1 | 104 nM | 232 nM |  | IC50 LCK (LCK kinase domain): NO IC50
15 | O=C(CCN1CCOCC1)c1cccc(OC(F)(F)F)c1 | 148 nM | 774 nM | 28 µM | 
16 | Cc1ccc(C(=O)CCN2CCOCC2)cc1 | 180 nM | 1520 nM | 164 µM | 
17 | CN(C)c1cccc(C(=O)CCN2CCOCC2)c1 | 186 nM | 3680 nM | 20.6 µM | 
18 | O=C(CCN1CCOCC1)c1ccc(C(F)(F)F)cc1 | 199 nM | 474 nM |  | IC50 LCK (LCK kinase domain): NO IC50
19 | O=C(CCN1CCOCC1)c1cccc(Oc2ccccc2)c1 | 207 nM | 94.1 nM | 18.5 µM | 

Row | Structure (SMILES) | IC50 (ITK kinase domain; Table 2) | IC50 (BTK kinase domain; Table 2) | IC50 (LCK kinase domain) | further results
20 | O=C(CCN1CCOCC1)c1ccc(F)c(F)c1 | 208 nM | 2890 nM | 33.1 µM | 
21 | O=C(CCN1CCOCC1)c1c(Cl)cccc1Cl | 207 nM | 80.7 nM |  | IC50 LCK (LCK kinase domain): NO IC50
22 | O=C(CCN1CCOCC1)c1ccc(OC(F)(F)F)cc1 | 219 nM | 1310 nM |  | IC50 LCK (LCK kinase domain): NO IC50
23 | Cc1ccc(C(=O)CCN2CCOCC2)cc1C | 223 nM | 1480 nM | 21.2 µM | 
24 | O=C(CCN1CCOCC1)c1ccc(Cl)cc1 | 290 nM | 682 nM | 25.9 µM | 
25 | O=C(CCN1CCOCC1)c1ccccc1Br | 305 nM | 741 nM |  | IC50 LCK (LCK kinase domain): NO IC50
26 | COc1ccc(C(=O)CCN2CCOCC2)c(OC)c1 | 345 nM | 3140 nM | 21.1 µM | 
27 | O=C(CCN1CCOCC1)c1cccc(F)c1 | 381 nM | 3030 nM | 32.6 µM | 
28 | Cc1ccc(C(=O)CCN2CCOCC2)c(C)c1 | 385 nM | 1480 nM | 25.3 µM | 
29 | O=C(CCN1CCOCC1)c1ccc2c(c1)OCO2 | 385 nM | 3920 nM | 23.3 µM | 
30 | CS(=O)(=O)c1ccc(C(=O)CCN2CCOCC2)cc1 | 385 nM | 753 nM | 23.9 µM | 
31 | O=C(CCN1CCOCC1)c1ccc(F)cc1C(F)(F)F | 468 nM | 1220 nM |  | IC50 LCK (LCK kinase domain): NO IC50
32 | Cc1cccc(C(=O)CCN2CCOCC2)c1 | 560 nM | 3070 nM | 24.4 µM | 
33 | NCC1CCN(CCC(=O)c2ccc3ccccc3c2)CC1 |  |  |  | IC50 (ITK kinase domain; Table 5): 86 nM; IC50 (BTK kinase domain; Table 5): 84 nM
34 | O=C(CCN1CCC(C(=O)c2ccncc2)CC1)c1ccc2ccccc2c1 |  |  |  | IC50 (ITK kinase domain; Table 5): 284 nM; IC50 (BTK kinase domain; Table 5): 486 nM
35 | O=C(CCN1CCC(CNC(=O)C(F)(F)F)CC1)c1ccc2ccccc2c1 |  |  |  | IC50 (ITK kinase domain; Table 5): 217 nM; IC50 (BTK kinase domain; Table 5): 266 nM
36 | O=C(CCNCC1CCNCC1)c1ccc2ccccc2c1 |  |  |  | IC50 (ITK kinase domain; Table 5): 163 nM; IC50 (BTK kinase domain; Table 5): 100 nM
37 | O=C(CCNCC1CCN(C(=O)c2ccncc2)CC1)c1ccc2ccccc2c1 |  |  |  | IC50 (ITK kinase domain; Table 5): 36 nM; IC50 (BTK kinase domain; Table 5): 4 nM
38 | CN(C)C(=O)N1CCC(CNCCC(=O)c2ccc3ccccc3c2)CC1 |  |  |  | IC50 (ITK kinase domain; Table 5): 737 nM; IC50 (BTK kinase domain; Table 5): 373 nM

Row | Structure (SMILES) | IC50 (ITK kinase domain; Table 2) | IC50 (BTK kinase domain; Table 2) | IC50 (LCK kinase domain) | further results
39 | O=C(CCN1CCOCC1)c1ccccc1Cl [drawing 133] |  |  | 28.1 µM | 
40 | O=C(CCN1CCOCC1)c1ccccc1Cl [drawing 149] |  |  |  | IC50 LCK (LCK kinase domain): NO IC50
41 | O=C1COc2ccc(C(=O)CCN3CCOCC3)cc2N1 [drawing 166] |  |  |  | IC50 (ITK kinase domain; Table 3, Compound): 5.9 nM; IC50 (BTK kinase domain; Table 3, Compound): 781 nM
42 | O=C(CCN1CCOCC1)c1ccc2ccccc2c1 [drawing 167] |  |  |  | IC50 (ITK kinase domain; Table 3, naphthyl analog): 20 nM; IC50 (BTK kinase domain; Table 3, naphthyl analog): 39.5 nM
43 | COc1cc2c(cc1OC)CN(CCC(=O)c1ccc3c(c1)NC(=O)CO3)CC2 [drawing 168] |  |  |  | IC50 (ITK kinase domain; Table 3, Compound): 30 nM; IC50 (BTK kinase domain; Table 3, Compound): 276 nM
44 | COc1cc2c(cc1OC)CN(CCC(=O)c1ccc3ccccc3c1)CC2 [drawing 169] |  |  |  | IC50 (ITK kinase domain; Table 3, naphthyl analog): 7 nM; IC50 (BTK kinase domain; Table 3, naphthyl analog): 12.8 nM
45 | CN(C)C1CCN(CCC(=O)c2ccc3ccccc3c2)C1 (stereo not shown) [drawing 171] |  |  |  | IC50 (ITK kinase domain; Table 3, naphthyl analog): 7 nM; IC50 (BTK kinase domain; Table 3, naphthyl analog): 2.15 nM
46 | CN(C)C1CCN(CCC(=O)c2ccc3ccccc3c2)CC1 [drawing 177] |  |  |  | IC50 (ITK kinase domain; Table 3, naphthyl analog): 9 nM; IC50 (BTK kinase domain; Table 3, naphthyl analog): 6.54 nM
47 | CC(C)N(CCC(=O)c1ccc2ccccc2c1)C(C)C [drawing 179] |  |  |  | IC50 (ITK kinase domain; Table 3, naphthyl analog): 9 nM; IC50 (BTK kinase domain; Table 3, naphthyl analog): 0.72 nM
48 | O=C(CCN1CCOCC1)c1ccc2ccccc2c1 [drawing 185] |  |  |  | IC50 (ITK kinase domain; Table 4): 20 nM; IC50 (BTK kinase domain; Table 4): 39 nM
49 | O=C(CCN1CCOCC1)c1cc2ccccc2cn1 [drawing 187] |  |  |  | IC50 (ITK kinase domain; Table 4): 1680 nM; IC50 BTK (BTK kinase domain; Table 4): no IC50
50 | O=C(CCN1CCOCC1)c1ccc2occc2c1 [drawing 192] |  |  |  | IC50 (ITK kinase domain; Table 4): 75 nM; IC50 (BTK kinase domain; Table 4): 2040 nM
51 | NC(=O)c1ccc2cc(C(=O)CCN3CCOCC3)ccc2c1 [drawing 198] |  |  |  | IC50 (ITK kinase domain; Table 4): 5 nM; IC50 (BTK kinase domain; Table 4): 1 nM
52 | O=C(CCN1CCOCC1)c1ccc2ccccc2c1 [drawing 200] |  |  |  | IC50 (ITK kinase domain; Table 5): 20.5 nM; IC50 (BTK kinase domain; Table 5): 39.5 nM
53 | O=C(CCN1CCCC1)c1ccc2ccccc2c1 [drawing 201] |  |  |  | IC50 (ITK kinase domain; Table 5): 137 nM; IC50 (BTK kinase domain; Table 5): 8220 nM
54 | O=C(CCN1CCC(Cc2ccccc2)CC1)c1ccc2ccccc2c1 [drawing 204] |  |  |  | IC50 (ITK kinase domain; Table 5): 60.2 nM; IC50 (BTK kinase domain; Table 5): 128 nM
55 | COc1cc2c(cc1OC)CN(CCC(=O)c1ccc3ccccc3c1)CC2 [drawing 212] |  |  |  | IC50 (ITK kinase domain; Table 5): 7.2 nM; IC50 (BTK kinase domain; Table 5): 115 nM
56 | CN(C)C1CCN(CCC(=O)c2ccc3ccccc3c2)C1 (stereo not shown) [drawing 214] |  |  |  | IC50 (ITK kinase domain; Table 5): 6.9 nM; IC50 (BTK kinase domain; Table 5): 49.2 nM
